Experimental data taken from patent publication US10738076B2, “Lanosterol prodrug compound and preparation method therefor and use thereof” (ZHONGSHAN OPHTHALMIC CENTER, SUN YAT-SEN UNIVERSITY, priority 2017, dated 2020).
“Also recorded” adds a separate entry of the source. Like-named read-outs stand apart in the source and are kept apart here.

Key:
[1] = ophthalmic drug penetration and drug conversion to lanosterol in vivo (aqueous humor concentration after eye drops); design: species or system New Zealand white rabbits
Procedure: In this study, New Zealand white rabbits (body weight was more than 2 kg, age was more than 12 weeks) were used as experimental animals. Each compound was studied with two New Zealand white rabbits. Each rabbit was instilled with […] eye drops in each eyes three eyes were used to collect aqueous humor samples and one eye was used as a backup. […] After the eye drops was dripped into the rabbit's eyes, the anterior aqueous humor was collected at 0.5, 2, 4 and 6 hours after administration. The volume of each sample was not more than 50 μL. Each animal was given mild anesthesia before collecting samples. Three samples were collected at every time point. The collected aqueous humor samples were stored in dry ice immediately after collection or stored in a refrigerator at −80±10° C. After the sample collection, the animals were euthanized. The concentration of the compound in each sample was determined using a triple quadrupole mass spectrometer (API 4000).

[2] = test system: lens glutathione peroxidase (GSH-PX) activity; test: ultraviolet-induced cataract model, lens GSH-PX activity assay; type: in vivo, New Zealand rabbits; conditions: after 42 days of administration; for effect on lens GSH-PX activity compared to the other treatment groups: 026 vs kary uni p<0.05
Procedure: (§1) Adult New Zealand rabbits 2.0-2.5 kg, normal grade, male and female, a total of 25.
(§2) The experimental rabbits were randomly divided into 5 groups with 5 rabbits per group.
(§3) 1) Normal control group (NC): normal feeding, no drug administration.
(§4) 2) Model control group (MC): 313 nm UV irradiation for 24 hours to make model, then drug-free blank eye drops was dripped to the right eye 3 times every day for 42 days.
(§5) 3) Positive control group (PC): 313 nm UV irradiation for 24 hours to make model, then kary uni eye drops (Santen Pharmaceutical Co., Ltd in Japan) was dripped into the right eye 3 times every day for 42 days.
(§6) 4) Lanosterol eye drops treatment group (LT): 313 nm UV irradiation for 24 hours to make model, then lanosterol eye drops was dripped into the right eye 3 times every day for 42 days.
(§7) 5) Lanosterol prodrug 026 eye drops treatment group (026): 313 nm UV irradiation for 24 hours to make model, then the lanosterol prodrug 026 eye drops was dripped into the right eye 3 times every day for 42 days.
(§8) 3) Glutathione peroxidase (GSH-PX) activity assay: GSH-PX activity of the isolated rabbit lens in each group was determined by the method provided in the specification of GSH-PX activity detection kit (Nanjing Jiancheng Bioengineering Institute). The experimental data was analyzed by One-Way ANOVA with SPSS statistical software. The LSD method was used to compare the groups, and the statistical difference level was p<0.05.

[3] = test system: ultraviolet-induced New Zealand rabbit cataract model; test: ultraviolet-induced cataract model, lens transparency test in vitro; type: in vivo, New Zealand rabbits; conditions: after 42 days of administration
Procedure: as §1, §2, §3, §4, §5, §6, §7
2) lens transparency test in vitro: on the last day, the animal's eyeball was dissected, the lens containing the capsule was completely separated, and the lens was placed on a grid paper (2.12×2.12 mm).

[4] = test system: sodium selenite-induced neonatal New Zealand rabbit cataract model; test: sodium selenite-induced cataract model, slit lamp observation; type: in vivo, neonatal New Zealand rabbits; conditions: eye drops right eye 3 times every day, 42 days, compared with pre-dose
Procedure: (§9) P7 days old neonatal New Zealand rabbits, normal grade, and 5 young rabbits per litter were breast-fed with a mother rabbit.
(§10) The experimental young rabbits were randomly divided into 5 groups with 5 rabbits per group.
(§11) 1) Normal control group (NC): in the P10 day, young rabbits were injected subcutaneously with 0.25 mL physiological saline from the neck, and were not administered after the P15 day.
(§12) 2) Model control group (MC): in the P10 day, young rabbits were injected subcutaneously with sodium selenite solution (in physiological saline) at 20 μmol/kg body weight, and after the P15 day, drug-free blank eyes drops was dripped into the right eye 3 times every day for 42 days.
(§13) 3) Positive control group (PC): in the P10 day, young rabbits were injected subcutaneously with sodium selenite solution (in physiological saline) at 20 μmol/kg body weight, and after the P15 day, kary uni eye drops (Santen Pharmaceutical Co., Ltd in Japan) was dripped into the right eye 3 times every day for 42 days.
4) Lanosterol eye drops treatment group (LT): in the P10 day, young rabbits were injected subcutaneously with sodium selenite solution (in physiological saline) at 20 μmol/kg body weight, and after the P15 day, lanosterol eye drops was dripped into the right eye 3 times every day for 42 days. […]

[5] = test system: lens glutathione peroxidase (GSH-PX) activity; test: sodium selenite-induced cataract model, lens GSH-PX activity assay; type: in vivo, neonatal New Zealand rabbits; conditions: after 42 days of administration; for effect on lens GSH-PX activity compared to the other treatment groups: 026 vs kary uni p<0.01
Procedure: as §9, §10, §11, §12, §13
(§14) 4) Lanosterol eye drops treatment group (LT): in the P10 day, young rabbits were injected subcutaneously with sodium selenite solution (in physiological saline) at 20 μmol/kg body weight, and after the P15 day, lanosterol eye drops was dripped into the right eye 3 times every day for 42 days.
(§15) 5) Lanosterol prodrug 026 eye drops treatment group (026): in the P10 day, young rabbits were injected subcutaneously with sodium selenite solution (in physiological saline) at 20 μmol/kg body weight, and after the P15 day, lanosterol prodrug 026 eye drops was dripped into the right eye 3 times every day for 42 days.
as §8

[6] = test system: sodium selenite-induced neonatal New Zealand rabbit cataract model; test: sodium selenite-induced cataract model, lens transparency test in vitro; type: in vivo, neonatal New Zealand rabbits; conditions: after 42 days of administration
Procedure: as §9, §10, §11, §12, §13, §14, §15
2) Lens transparency test in vitro: on the last day, the animal's eyeball was dissected, the lens containing the capsule was completely separated, and the lens was placed on a grid paper (2.12×2.12 mm).

[7] = test system: ultraviolet-induced New Zealand rabbit cataract model; test: ultraviolet-induced cataract model, slit lamp observation; type: in vivo, New Zealand rabbits; conditions: ultraviolet (313 nm, 24 hours) model, eye drops right eye 3 times every day, 42 days, compared with pre-dose
Procedure: as §1, §2, §3, §4, §5, §6, §7

cataract = conditions: background, published in Nature; cited from earlier work
[8] = test system: pre-formed lens protein aggregates; conditions: in vitro at the cellular level; background, published in Nature; cited from earlier work
[9] = 6 hours after 250 nmol dripped into each eye of New Zealand white rabbit
[10] = in vivo, 250 nmol per eye, 0.5 hour after 250 nmol dripped into each eye of New Zealand white rabbit, read-out: Average concentration of the dripped compound itself in the aqueous humor
[11] = in vivo, 250 nmol per eye, 2 hours after 250 nmol dripped into each eye of New Zealand white rabbit, read-out: Average concentration of the dripped compound itself in the aqueous humor
[12] = 0.5 hour after 250 nmol dripped into each eye of New Zealand white rabbit
[13] = 2 hours after 250 nmol dripped into each eye of New Zealand white rabbit
[14] = 4 hours after 250 nmol dripped into each eye of New Zealand white rabbit
[15] = 026 and kary uni p<0.01, lanosterol p>0.05, listed as lanosterol prodrug 026
[16] = listed as lanosterol prodrug 026
[17] = 026 and kary uni p<0.01, lanosterol p>0.05

COC(=O)[C@H](C)NP(=O)(Oc1ccccc1)O[C@H]1CC[C@]2(C)C3=C(CCC2C1(C)C)[C@]1(C)CC[C@H]([C@H](C)CCC=C(C)C)[C@@]1(C)CC3 (stereo partly shown) [Compound 1]
Average concentration of Lanosterol in the aqueous humor after the prodrug was dripped ([1]; 0.5 hour after 250 nmol prodrug dripped into each eye of New Zealand white rabbit): BQL
Average concentration of Lanosterol in the aqueous humor after the prodrug was dripped ([1]; 2 hours after 250 nmol prodrug dripped into each eye of New Zealand white rabbit): BQL
Average concentration of the dripped compound itself in the aqueous humor [1, 9]: BQL
concentration at 0.5 h [1, 10]: 7.5 nM
concentration at 2 h [1, 11]: 8.6 nM

CC(C)=CCC[C@@H](C)[C@H]1CC[C@@]2(C)C3=C(CC[C@]12C)[C@@]1(C)CC[C@H](OC(=O)c2ccc([N+](=O)[O-])cc2)C(C)(C)C1CC3 (stereo partly shown) [Compound 4]
Average concentration of the dripped compound itself in the aqueous humor [1, 12]: BQL
Average concentration of the dripped compound itself in the aqueous humor [1, 13]: BQL
Average concentration of the dripped compound itself in the aqueous humor [1, 14]: BQL
Average concentration of the dripped compound itself in the aqueous humor [1, 9]: BQL

CC(C)=CCC[C@@H](C)[C@H]1CC[C@@]2(C)C3=C(CC[C@]12C)[C@@]1(C)CC[C@H](OC(=O)c2ccccc2O)C(C)(C)C1CC3 (stereo partly shown) [Compound 8]
lens GSH-PX activity compared to the MC group [2, 15]: could increase the GSH-PX activity of the lens; also recorded: improve lens transparency and lens GSH-PX activity
effect on lens GSH-PX activity compared to the other treatment groups [2]: better than that of kary uni
Average concentration of the dripped compound itself in the aqueous humor [1, 9]: BQL
concentration at 0.5 h [1, 10]: 41 nM
concentration at 2 h [1, 11]: 33.3 nM
concentration at 4 h ([1]; in vivo, 250 nmol per eye, 4 hours after 250 nmol dripped into each eye of New Zealand white rabbit, read-out: Average concentration of the dripped compound itself in the aqueous humor): 25.5 nM
lens transparency of the right eye compared to the MC group [3]: significantly higher than that of the MC group
lens transparency of the right eye compared to the NC group [3]: still lower than that of the NC group
lens transparency of the administered right eye compared to the left eye (self-control) [3, 16]: significantly higher than that of the left eye; also recorded: improve lens transparency
cataract symptoms, slit lamp observation [4, 16]: cataract symptoms were significantly reduced; also recorded: could alleviate the cataract symptoms
lens GSH-PX activity compared to the MC group [5, 15]: could increase the GSH-PX activity of the lens; also recorded: improve lens transparency and lens GSH-PX activity
effect on lens GSH-PX activity compared to the other treatment groups [5]: better than that of kary uni
lens transparency of the right eye compared to the MC group [6]: significantly higher than that of the MC group
lens transparency of the right eye compared to the NC group [6]: still lower than that of the NC group
lens transparency of the administered right eye compared to the left eye (self-control) [6, 16]: significantly higher than that of the left eye; also recorded: improve lens transparency
cataract symptoms, slit lamp observation [7, 16]: cataract symptoms were significantly reduced; also recorded: could alleviate the cataract symptoms

CC(C)=CCC[C@@H](C)[C@H]1CC[C@@]2(C)C3=C(CC[C@]12C)[C@@]1(C)CC[C@H](OC(=O)c2ccno2)C(C)(C)C1CC3 (stereo partly shown) [Compound 9]
Average concentration of the dripped compound itself in the aqueous humor [1, 12]: BQL
Average concentration of the dripped compound itself in the aqueous humor [1, 13]: BQL

CC(C)=CCC[C@@H](C)[C@H]1CC[C@@]2(C)C3=C(CC[C@]12C)[C@@]1(C)CC[C@H](OC(=O)c2ncon2)C(C)(C)C1CC3 (stereo partly shown) [Compound 10]
Average concentration of the dripped compound itself in the aqueous humor [1, 12]: BQL
concentration at 2 h [1, 11]: 37.9 nM

CC(=O)Oc1ccccc1C(=O)O[C@H]1CC[C@]2(C)C3=C(CCC2C1(C)C)[C@]1(C)CC[C@H]([C@H](C)CCC=C(C)C)[C@@]1(C)CC3 (stereo partly shown) [Compound 12]
AUC (exposure amount) of the dripped compound itself in the aqueous humor ([1]; 250 nmol dripped into each eye of New Zealand white rabbit): BQL
Average concentration of the dripped compound itself in the aqueous humor [1, 14]: BQL
Average concentration of the dripped compound itself in the aqueous humor [1, 9]: BQL
concentration at 0.5 h [1, 10]: 60 nM
concentration at 2 h [1, 11]: 15.6 nM

CC(C)=CCC[C@@H](C)[C@H]1CC[C@@]2(C)C3=C(CC[C@]12C)[C@@]1(C)CC[C@H](O)C(C)(C)[C@@H]1CC3 [Lanosterol]
lens GSH-PX activity compared to the MC group [2, 17]: no statistical difference compared to the MC group
effect on lens GSH-PX activity compared to the other treatment groups [2]: significantly lower than that of 026 and kary uni
effect on cataract and lens transparency in vivo (cataract): can reverse the condition of cataract
concentration at 0.5 h ([1]; aqueous humor, topical, 250 nmol per eye, 0.5 hour after 250 nmol dripped into each eye of New Zealand white rabbit, read-out: Average concentration of the dripped compound itself in the aqueous humor): 106 nM
concentration at 2 h ([1]; aqueous humor, topical, 250 nmol per eye, 2 hours after 250 nmol dripped into each eye of New Zealand white rabbit, read-out: Average concentration of the dripped compound itself in the aqueous humor): 496 nM
concentration at 4 h ([1]; aqueous humor, topical, 250 nmol per eye, 4 hours after 250 nmol dripped into each eye of New Zealand white rabbit, read-out: Average concentration of the dripped compound itself in the aqueous humor): 300 nM
concentration at 6 h ([1]; aqueous humor, topical, 250 nmol per eye, 6 hours after 250 nmol dripped into each eye of New Zealand white rabbit, read-out: Average concentration of the dripped compound itself in the aqueous humor): 225 nM
penetration into the aqueous humor / permeability ([1]; eye drops, rabbit, in words): could penetrate into the aqueous humor
lens transparency of the administered right eye compared to the left eye (self-control) [3]: no significant change in lens transparency
cataract symptoms, slit lamp observation [4]: did not change significantly
lens GSH-PX activity compared to the MC group [5, 17]: no statistical difference compared to the MC group
effect on lens GSH-PX activity compared to the other treatment groups [5]: significantly lower than that of 026 and kary uni
lens transparency of the administered right eye compared to the left eye (self-control) [6]: no significant change in lens transparency
effect on pre-formed lens protein aggregates [8]: significantly reduce pre-formed lens protein aggregates
cataract symptoms, slit lamp observation [7]: did not change significantly
